The text below walks through data of patent US9457045B2, “Combination of anti-clusterin oligonucleotide with Hsp90 inhibitor for the treatment of prostate cancer” (The University of British Columbia, priority 2011, dated 2016).

In one data set the test system is HSF-1. Briefly: HSE-luciferase assay of HSF-1 activity. Format: cell-based, human. The method, then: FIG. 3. CLU induction following Hsp90 inhibitor treatment is cytoprotective via an increase of HSF-1 activity. A, LNCaP cells were treated with indicated concentrations of Hsp90i-1 or Hsp90i-2 for 48 h. B, LNCaP cells were transiently transfected with indicated concentrations of CLU-plasmid for 48 h. Total amount of plasmid DNA transfected was normalized to 2 μg per well by the addition of an empty vector. C (Top), LNCaP cells were transfected with 20 nM CLU siRNA or control siScr, followed of Hsp90i-1 or Hsp90i-2 treatment (1 μM) for 48 h. C (bottom), LNCaP cells were treated twice with 300 nM custirsen or control ScrB ASO. D, LNCaP and PC-3 cells were treated twice with 300 nM custirsen or control ScrB ASO, followed by 1 μM of Hsp90i-1 or Hsp90i-2 for 48 h. Cells were harvested, and HSE-luciferase activity or western blotting analyses were performed. Means of at least three independent experiments done in triplicate. ***, p<0.001; *, p<0.05; ns, not significant.
LNCaP and C4-2 cells (2.5×10^5) were plated on six-plates and transfected using lipofectin (6 μL per well; Invitrogen Life Technologies, Inc.). The total amount HSE plasmids DNA used were normalized to 1 μg per well by the addition of a control plasmid. One μM HSP90i-2 or Hsp90i-1 was added 4 h after the transfection and for 48 h. HSE-luciferase activity was measured using Dual-Luciferase Reporter Assay System (Promega) with the aid of a microplate luminometer (EG&G Berthold). All experiments were carried out in triplicate wells and repeated 3 times using different preparations of plasmids.

The conditions of data set [1]: 60 mg/kg/day (Glaze et al., 2005); cited from earlier work.
A short description of data set [2]: Toxicity of Hsp90 inhibitor monotherapy. The data set is classed as in vivo. Conditions: 50 mg/kg/day.
The test system of a further data set is Hsp70. The data set is described as follows: Hsp70 expression in CRPC LNCaP xenografts (immunohistochemistry). Conditions: 50 mg/kg Hsp90i-2-PRO for 6 weeks. The data set is classed as in vivo, mice. The method, then: (§1) FIG. 2. Hsp90i-2 induces HSP and CLU expression in PCa xenografts. Mice were treated for 6 weeks with 50 mg/kg Hsp90i-2-PRO (the prodrug of Hsp90i-2) or vehicle (Control). A, tumors were collected and CLU and Hsp70 were evaluated by immunohistochemical analysis. B, total proteins were extracted from the xenograft tumors and CLU expression was analyzed by western blotting. The relative levels were normalized with GAPDH and estimated in densitometric units. ***, p<0.001.
(§2) Male athymic nude mice (Harlan Sprague-Dawley, Inc.) were injected s.c. with 2×10^6 LNCaP cells (suspended in 0.1 mL Matrigel; BD Biosciences). The mice were castrated once tumors reach between 300 and 500 mm^3 or the PSA level increased above 50 ng/mL. Once tumors progressed to castrate resistance, mice were randomly assigned to vehicle, Hsp90i-2-PRO alone, Hsp90i-2-PRO+ScrB ASO or Hsp90i-2-PRO+custirsen. […] Tumor volume was measured twice weekly (length×width×depth×0.5432). Serum PSA was determined weekly by enzymatic immunoassay (Abbott IMX, Montreal, Quebec, Canada). PSA doubling time (PSAdt) and velocity were calculated by the log-slope method (PSAt=PSAinitial×emt). Data points were expressed as average tumor volume±SEM or average PSA concentration±SEM. […]

Data set [3] concerns CLU. The data set is described as follows: CLU expression in CRPC LNCaP xenografts (immunohistochemistry and western blot). Format: in vivo, mice. To be noted: 50 mg/kg Hsp90i-2-PRO for 6 weeks. As for the experimental part: as §1, §2
For data set [4], the system named is castrate resistant LNCaP tumors. The data set is described as follows: Castrate resistant LNCaP xenograft model. Format: in vivo. To be noted: for tumor volume: Hsp90i-2-PRO 25 mg/kg oral, ASO 15 mg/kg i.p. The method, then:
FIG. 6. […] Mice were treated with 25 mg/kg Hsp90i-2-PRO and 15 mg/kg custirsen starting when serum PSA values relapsed to pre-castration levels. […] Progression-free survival was defined as time for the first tumor volume doubling.
FIG. 7. […] A, tumors were collected after 57 days and CLU, Ki67, AR, AKT and TUNEL were evaluated by immunohistochemical analysis (original magnification: ×200). B, total proteins were extracted from the xenograft tumors and CLU, AR, Akt and PSA were analyzed by western blotting. The relative levels were normalized with vinculin and estimated in densitometric units±SEM.
Male athymic nude mice (Harlan Sprague-Dawley, Inc.) were injected s.c. with 2×10^6 LNCaP cells (suspended in 0.1 mL Matrigel; BD Biosciences). The mice were castrated once tumors reach between 300 and 500 mm^3 or the PSA level increased above 50 ng/mL. Once tumors progressed to castrate resistance, mice were randomly assigned to vehicle, Hsp90i-2-PRO alone, Hsp90i-2-PRO+ScrB ASO or Hsp90i-2-PRO+custirsen. Hsp90i-2-PRO (Prodrug, 25 mg/kg; formulation in 0.5% CMC+0.5% Tween-80) is orally administered three times per week and custirsen or ScrB ASO (15 mg/kg) was injected intra-peritoneally once daily for the first week and then three times per week. Each experimental group consisted of 10 mice. Tumor volume was measured twice weekly (length×width×depth×0.5432). Serum PSA was determined weekly by enzymatic immunoassay (Abbott IMX, Montreal, Quebec, Canada). PSA doubling time (PSAdt) and velocity were calculated by the log-slope method (PSAt=PSAinitial×emt). Data points were expressed as average tumor volume±SEM or average PSA concentration±SEM.
When tumor volume reached 10% of body weight, mice were sacrificed and tumors harvested for evaluation of protein expression by western blotting analyses and immunohistochemistry. All animal procedures were performed according to the guidelines of the Canadian Council on Animal Care and appropriate institutional certification.
Immunohistochemical stains were performed on formalin-fixed and paraffin-embedded 4 μm sections of tumor samples using adequate primary antibody, and the Ventana autostainer Discover XT (Ventana Medical System) with enzyme labeled biotin streptavidin system and solvent resistant 3,3′-diaminobenyidine Map kit. All comparisons of staining intensities were made at 200× magnifications.

Data set [5] shares this test system. To be noted: 50 mg/kg monotherapy, previous study (Lamoureux et al., 2011); cited from earlier work.
The test system of another data set is LNCaP cells. Briefly: Apoptosis assays: propidium iodide flow cytometry (subG1) and western blotting. The data set is classed as cell-based, human. Conditions: 300 nM custirsen or ScrB twice, then 1 μM Hsp90 inhibitor. The method, then:
FIG. 4. Increased potency of CLU knockdown and Hsp90 inhibitor combination treatment in PCa cells. A, LNCaP cells were treated twice with 300 nM custirsen or control ScrB ASO, followed by the indicated concentration of Hsp90i-1 or Hsp90i-2 for 48 h. Cell growth was determined by crystal violet and compared with control. B, dose dependent effects and combination index (CI) values calculated by CalcuSyn software were assessed in LNCap cells treated for 48 h with custirsen alone, Hsp90i-2 alone or combined treatment at indicated concentration with constant ratio design between both drugs. […] C and D, LNCaP cells were treated twice with 300 nM custirsen or control ScrB, followed by 1 μM Hsp90i-1 or Hsp90i-2 for 48 h. […] The proportion of cells in subG1, G0-G1, S, G2-M was determined by propidium iodide staining and caspase-3 activity was determined on the cell lysates and the results are expressed in arbitrary units and corrected for protein content (D). […]
Prostate cells lines were plated in appropriate media (DMEM or RPMI) with 5% FBS and treated with Hsp90i-2-PRO or Hsp90i-1 at indicated concentration and time and cell growth was measured using the crystal violet assay as described previously (Leung et al., 2000). Detection and quantitation of apoptotic cells were done by flow-cytometry (described below) and western blotting analysis. […]
Background: In flow cytometry, cells or beads pass a laser one at a time.

For data set [6], the system named is CLU. Conditions: Phase II studies (Chi et al., 2005); cited from earlier work.
Setting [7] is: LNCaP cells, Hsp90 inhibitor at indicated concentrations 48 h, dose-dependent.

Read-outs that look alike come from different tables or passages of the source. In the oligonucleotide strings, read from the 5' end, every base follows the letter of its sugar. An asterisk marks phosphorothioate; unmarked linkages are phosphodiester. Other units and linkages are bracketed, terminal groups are in braces. A string of capitals states the bases alone. e = 2'-O-(2-methoxyethyl) (MOE); [5mC] = 5-methylcytosine; d = 2'-deoxy (DNA)

As to `C=CCNC1=C2C[C@@H](C)C[C@H](OC)[C@H](O)[C@@H](C)/C=C(\C)[C@H](OC(N)=O)[C@@H](OC)/C=C\C=C(/C)C(=O)NC(=CC1=O)C2=O` [Hsp90i-1, 17-allylamino-17-demethoxygeldanamycin], in the data set on HSF-1 (setting [7]), the HSF-1 activity entry is “significantly induced”. In addition, in data set [1], the toxicity as monotherapy result is recorded as “hepatotoxicity”.

As to `CC1(C)CC(=O)c2c(C(F)(F)F)nn(-c3ccc(C(N)=O)c(NC4CCC(O)CC4)c3)c2C1` (centres unmarked) [Hsp90i-2, 4-(6,6-Dimethyl-4-oxo-3-trifluoromethyl-4,5,6,7-tetrahydro-indazol-1-yl)-2-(4-hydroxy-cyclohexylamino)-benzamide], in the data set on HSF-1 (setting [7]), the HSF-1 activity entry is given as “significantly induced”.

As for `CC1(C)CC(=O)c2c(C(F)(F)F)nn(-c3ccc(C(N)=O)c(NC4CCC(OC(=O)CN)CC4)c3)c2C1` (centres unmarked) [Hsp90i-2-PRO], in [2], the toxicity as monotherapy result was “body weight loss”. Also, the “Hsp70 increase compared with vehicle treated tumor” value with Hsp70 is 2.3 fold. Further, the “CLU expression increase compared with vehicle treated tumor” value in the data set on CLU [3] worked out at 4 fold. Besides, the tumor volume in data set [4] (7 weeks post treatment) is reported as 2483.6 mm^3; in data set [4] (at 10 days), 646.4 mm^3. In addition, the overall survival entry in data set [4] (by day 57) is “all mice died or were euthanized”. Also, the “mean PSA level” value in data set [4] (serum, after 42 days) worked out at 527 ng/mL. In data set [4] (sub-therapeutic dose of 25 mg/kg/day HSP90i-2-PRO), the “tumor volume / tumor progression” value is recorded as “marginal, non-significant decreases”. Also, the “effect on serum PSA levels” value in data set [4] (sub-therapeutic dose of 25 mg/kg/day, monotherapy) is “no effect”. Moreover, in data set [5], the “LNCaP CRPC tumor progression” value is “inhibited”.

Turning to “control ScrB ASO: scrambled control oligonucleotide with 2′-O-(2-methoxy)ethyl modification, 5′-CAGCGCTGACAACAGTTTCAT-3′ (SEQ ID NO: 44) (2'-O-methoxyethyl modified, pattern not given here)”, the “apoptotic rates (subG1 fraction)” value in the data set on LNCaP cells turned out to be 4.2%.

Take “custirsen: antisense oligonucleotide reducing clusterin expression, CAGCAGCAGAGTCTTCATCAT (SEQ ID NO: 3), phosphorothioate backbone, 2′-O-methoxyethyl wings (antisense e[5mC]*eA*eG*e[5mC]*dA*dG*dC*dA*dG*dA*dG*dT*dC*dT*dT*dC*dA*eT*e[5mC]*eA*eT; listed as Homo sapiens)”: in the data set with HSF-1 (LNCaP cells treated twice with 300 nM custirsen vs control ScrB ASO), the HSF-1 activity entry was “significantly decreased”. In the data set with CLU [6], the “inhibition of CLU in human prostate cancer tissues” value is recorded as greater than 90%. In addition, in the data set on LNCaP cells, the “apoptotic rates (subG1 fraction)” value was determined as 17.4%.
